Where two headings read alike, the source gives them in different places. Ends that are not written are not given here.

Usually EC50 stands for the concentration needed to bring the measured effect to its halfway point.

For series [1], the target named is T1, cyno GLP-1r (cGLP-1r) (Macaca fascicularis, UniProt F8V479).
T1 construct: expressed in transfected cells
Briefly: cAMP assay, cells expressing cyno GLP-1r, 4.2% cyno serum albumin. In kind it is cell-based, cynomolgus monkey. An excerpt:
In certain aspects, the assay can also be carried out in medium supplemented with serum albumin that corresponds to the receptor being tested, e.g., human serum albumin for testing cAMP activity at hGIPr or hGLP-1r, rat serum albumin for testing cAMP activity at rGIPr or rGLP-1r, and so on. […] All sample dilutions were made in duplicate.
A frozen cryo-vial of cells expressing the receptor of interest was thawed rapidly in a water-bath, transferred to pre-warmed assay media and spun at 240×g for 5 minutes. Cells were re-suspended in assay buffer at an optimized concentration (e.g., hGLP-1r and hGIPr cells at 0.5×10^5 cells/ml).
To this, 5 μL cell suspension was added and the plates incubated at room temperature for 30 minutes.
cAMP levels were measured using a commercially available cAMP dynamic 2 HTRF kit (Cisbio, Cat #62AM4PEJ), following the two step protocol as per manufacturer's recommendations. In brief; anti-cAMP cryptate (donor fluorophore) and cAMP-d2 (acceptor fluorophore) were made up separately by diluting each 1/20 in conjugate & lysis buffer provided in the kit. […] Data was transformed to % Delta F as described in manufacturer's guidelines and then transformed to percent activation of maximal native agonist response and analysed by 4-parameter logistic fit to determine EC50 values.
(cAMP levels reflect the balance of adenylyl cyclase and phosphodiesterase activity.)

The subject of series [2] is cyno GCGr (cGCGr). Briefly: cAMP assay, cells expressing cyno GCGr, 4.2% cyno serum albumin. In kind it is cell-based, cynomolgus monkey. The settings on record: culture medium containing 4.2% cyno serum albumin. An excerpt: In certain aspects, the assay can also be carried out in medium supplemented with serum albumin that corresponds to the receptor being tested, e.g., human serum albumin for testing cAMP activity at hGIPr or hGLP-1r, rat serum albumin for testing cAMP activity at rGIPr or rGLP-1r, and so on. Low protein binding 384-well plates (Greiner #781280) were used to perform eleven 1 in 5 serial dilutions of test samples that were made in assay medium. All sample dilutions were made in duplicate.
A frozen cryo-vial of cells expressing the receptor of interest was thawed rapidly in a water-bath, transferred to pre-warmed assay media and spun at 240×g for 5 minutes. Cells were re-suspended in assay buffer at an optimized concentration (e.g., hGLP-1r and hGIPr cells at 0.5×10^5 cells/ml). […]
cAMP levels were measured using a commercially available cAMP dynamic 2 HTRF kit (Cisbio, Cat #62AM4PEJ), following the two step protocol as per manufacturer's recommendations. […] Plates were incubated at room temperature for one hour and then read on an Envision (Perkin Elmer) using excitation wavelength of 320 nm and emission wavelengths of 620 nm & 665 nm. Data was transformed to % Delta F as described in manufacturer's guidelines and then transformed to percent activation of maximal native agonist response and analysed by 4-parameter logistic fit to determine EC50 values.

A short description of series [3]: Extended pharmacokinetics, serum ELISA for protein (Fc) detection. The class given is in vivo, CD male rats. The settings on record: 1 mg/kg subcutaneously or intravenously, serum out to 168 hours. The protocol: More extended pharmacokinetic assays to determine protein stability and activity were performed as follows. CD male rats (n=3) were injected subcutaneously or intravenously with 1 mg/kg IP088 or GLP1a-Fc. Periodic serum samples were obtained out to 168 hours. The serum samples were subjected to ELISA for protein (Fc) detection by the following method. ELISA plates (Costar 3690) were coated with Mouse anti-human IgG (JCD-10) 1/500 in PBS (final concentration 1 μg/ml). […] was added to each well and the plates were incubated overnight at 4° C. Following washing with PBS-Tween (PBS-T), the plates were blocked with […] 1% BSA in PBS for 1 h at RT with gentle shaking. Following washing with PBS-T, standards, and dilutions of […] samples were added (50 μl/well), and the plate was incubated for 2 h at RT with gentle shaking. Following washing […] biotinylated mouse anti-human IgG (JCD-10) diluted 1/1000 in ELISA incubation buffer (final concentration 0.5 μg/ml) was added to each well and the plates were incubated for 1 h at RT with gentle shaking. Following washing […] of Streptavidin-HRP diluted 1/1000 in ELISA incubation buffer was added to each well, and the plates were incubated for 45 min at RT with gentle shaking. […]
In general terms: In an ELISA, binding on a coated surface is turned into a signal by an enzyme label.

T1 sequence (F8V479 24-463): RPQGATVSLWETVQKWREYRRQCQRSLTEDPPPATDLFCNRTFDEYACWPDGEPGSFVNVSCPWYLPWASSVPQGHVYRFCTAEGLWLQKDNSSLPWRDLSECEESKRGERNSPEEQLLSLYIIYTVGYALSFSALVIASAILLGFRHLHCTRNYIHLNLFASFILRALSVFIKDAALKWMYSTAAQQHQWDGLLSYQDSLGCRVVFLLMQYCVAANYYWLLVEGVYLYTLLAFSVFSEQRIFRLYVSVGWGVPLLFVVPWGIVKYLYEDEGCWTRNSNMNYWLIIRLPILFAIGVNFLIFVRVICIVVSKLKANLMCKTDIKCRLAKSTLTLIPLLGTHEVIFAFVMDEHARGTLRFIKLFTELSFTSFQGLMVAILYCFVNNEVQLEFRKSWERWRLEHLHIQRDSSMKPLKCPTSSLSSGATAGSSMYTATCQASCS

`CCCCCCCCCCCCCCCC(=O)N[C@@H](CCC(=O)NCCCC[C@H](NC(=O)[C@H](C)NC(=O)[C@H](C)NC(=O)[C@H](CCC(N)=O)NC(=O)CNC(=O)[C@H](CCC(=O)O)NC(=O)[C@H](CC(C)C)NC(=O)[C@H](Cc1ccc(O)cc1)NC(=O)[C@H](CO)NC(=O)[C@H](CO)NC(=O)[C@@H](NC(=O)[C@H](CC(=O)O)NC(=O)[C@H](CO)NC(=O)[C@@H](NC(=O)[C@H](Cc1ccccc1)NC(=O)[C@@H](NC(=O)CNC(=O)[C@H](CCC(=O)O)NC(=O)[C@H](C)NC(=O)[C@@H](N)Cc1cnc[nH]1)[C@@H](C)O)[C@@H](C)O)C(C)C)C(=O)N[C@@H](CCC(=O)O)C(=O)N[C@@H](Cc1ccccc1)C(=O)N[C@H](C(=O)N[C@@H](C)C(=O)N[C@@H](Cc1c[nH]c2ccccc12)C(=O)N[C@@H](CC(C)C)C(=O)N[C@H](C(=O)N[C@@H](CCCNC(=N)N)C(=O)NCC(=O)N[C@@H](CCCNC(=N)N)C(=O)NCC(=O)O)C(C)C)[C@@H](C)CC)C(=O)O` [liraglutide]: the EC50 in series [1] was 0.025 nM. Turning to “GLP1a-Fc: GLP-1 analogue-Fc (gamma4) fusion control; GLP-1 agonist; Peptide SEQ ID NO:62-Fc, SEQ ID NO:189 (HGEGTFTSDVSSYLEEQAAKEFIAWLVKGR; also: Fc (gamma4) fusion)”, the EC50 is 0.011 nM in series [1] (culture medium containing 4.2% cyno serum albumin, read-out: EC50 for cGLP-1r) and > 1000 nM in series [2]. Further, the “PK profile by Fc ELISA (Cmax, bioavailability, half-life), in words” value in series [3] was “equivalent PK profiles”. As to “hGCG: native human glucagon, comparator in cAMP assays”, the midpoint of the response in series [2], the EC50, lay at 0.0036 nM.

Source of the values: patent US20160185837A1 (Medimmune Limited, priority 2013, published 2016).
